From paper PMC10814725, “In Vitro Anti-Inflammatory Study of Limonoids Isolated from Chisocheton Plants” (Current Issues in Molecular Biology, 2024)
Where two headings read alike, the source gives them in different places.

Tests used:
TNF-α = assay: ELISA of TNF-α production in LPS-stimulated THP-1 cells; assay type: cell-based, human; settings: for IC50: Homo sapiens, THP-1, 18 h, read-out: TNF-α IC50
IL-6 = assay: ELISA of IL-6 production in LPS-stimulated THP-1 cells; assay type: cell-based, human; settings: Homo sapiens, THP-1, 18 h, LPS-stimulated (10 ng/mL) THP-1 cells, 1, 5, 10, 20 µM, 18 h
Experimental: (§1) The logarithmic growth phase of THP-1 cells was achieved by seeding in 96-well plates at a density of 5 × 10^4 cells/well and differentiated for 24 h in the presence of PMA (0.5 μM solution in medium). After 24 h of incubation, the culture medium was removed from the 96-well plate and the cells were washed with PBS. […] The cells were pretreated with 17 limonoids at the corresponding concentration for 1 h, followed by the addition of LPS (10 ng/mL) and then incubation at 37 °C for 18 h. Finally, 50 μL of each culture supernatant solution was taken to determine the concentrations of IL-6, MCP-1, and IL-1β using the corresponding commercially available human ELISA kits following the manufacturer’s instructions. The analyte concentration in the supernatant was measured in pg/mL, and the inhibition level was expressed as a fold change compared to the LPS (−) control group. To determine the IC50 value, the dose-response data were normalized to the LPS-stimulated-only group, and the percentage of inhibition was calculated using the following formula: % Inhibition=(Absorbance of LPS+ control−Absorbance of compound treatment with LPS)/(Absorbance of LPS+ control−Absorbance of LPS− control)×100
(§2) Furthermore, the % inhibition data were interpolated into linear equations to determine the IC50 values.

MCP-1 = assay: ELISA of MCP-1 production in LPS-stimulated THP-1 cells; assay type: cell-based, human; settings: Homo sapiens; LPS-stimulated (10 ng/mL) THP-1 cells, 1, 5, 10, 20 µM, 18 h
Experimental: as §1, §2

[1] = Cell viability by CCK-8, THP-1 cells; assay type: cell-based; settings: human, PMA-differentiated THP-1 cells; for CC50 at 18 h: concentration causing 50% cytotoxicity against THP-1 cells
Experimental: (§3) The viability of HEK-Blue^TM hTLR4, […], and THP-1 cells was evaluated using the Dojindo Cell Counting Kit-8 (CCK-8) according to the manufacturer’s instructions. The viability of HEK-Blue^TM hTLR4 and THP-1 cells was assessed under identical conditions to the corresponding assay treatments. HEK-Blue^TM hTLR4 cells (2 × 10^4 cells/well) were seeded in 96-well plates and serum-starved for 24 h at 37 °C in a 5% CO2 atmosphere. After incubation, the culture medium was aspirated, and the cells were washed with saline. High-glucose D-MEM supplemented with 0.1% FBS and 1% penicillin–streptomycin was added and pretreated with or without the 17 limonoids at a concentration of 20 µM for 1 h, followed by LPS addition at a concentration of 10 ng/mL. After 18 h of incubation, a 10% (v/v) CCK-8 solution was added to each well and incubated at 37 °C for 1 h, and cell viability was calculated.
The THP-1 cells at 5 × 10^4 cells/well were differentiated for 24 h in the presence of PMA (0.5 μM solution in medium). After 24 h of incubation, the culture medium was removed from the 96-well plate and the cells were washed with PBS. Fresh RPMI-1640 medium supplemented with 0.1% FBS and 1% penicillin–streptomycin was added to each well and incubated at 37 °C for overnight. The cells were pretreated with 17 limonoids at the corresponding concentration for 1 h followed by the addition of LPS (10 ng/mL) and incubated at 37 °C for 18 h. Furthermore, CCK-8 solution was added to each well with a final concentration was 10% (v/v) and incubated at 37 °C. After 1 h, the absorbance of each well was measured at […] by using a microplate reader (BioTek Cytation 5 Cell Imaging Multimode Reader). Cell viability was calculated using the following formula: % Cell viability=(Absorbance of sample−Absorbance of Background)/(Absorbance of control−Absorbance of Background)×100 where the absorbance of the sample is the absorbance of cells treated by the compound with or without LPS, the absorbance of the control is the absorbance of LPS (−)-treated cells, and the background absorbance is the absorbance of a well containing only the medium. The results were expressed as 100% cell viability.

[2] = Cell viability by CCK-8, HEK-Blue hTLR4 cells; assay type: cell-based; settings: human
Experimental: as §3

phosphorylated-p38 MAPK = assay: Western blotting of phosphorylated-p38 MAPK in LPS-stimulated THP-1 cells; assay type: cell-based, human; settings: 10 µM, LPS 10 ng/mL, 18 h, compared to LPS (+) group
Experimental: THP-1 cells were seeded at a density of 1 × 10^6 cells/well in 24-well plates. The cells were then pretreated with a concentration of 10 µM of compounds 3, 5, 9, or 15 for 1 h. Subsequently, LPS (10 ng/mL) was added to the cells, which were incubated for 18 h. The protein concentrations were determined using a bicinchoninic acid (BCA) assay kit.
For Western blot analysis, proteins were separated by SDS-PAGE and transferred onto a polyvinylidene fluoride (PVDF) membrane. The membranes were blocked with 2.5% BSA in Tris-buffered saline-Tween (TBST) for 1 h at room temperature. After three washes with TBST, the membranes were incubated with a diluted primary antibody solution (anti-phosphorylated-p38 MAPK or anti-p38 MAPK) at a 1:1000 dilution for 1 h at room temperature. After three washes with TBS-T, the membranes were incubated with a secondary antibody conjugated to horseradish peroxidase (HRP; 1:4000 dilution) for 30 min at room temperature and subsequently detected by chemiluminescence. Finally, the bands were visualized and quantified using an ImageQuant 800 GxP system (Cytiva, MA, USA). The results were expressed as ratios relative to the reference protein β-actin.

in vitro = assay type: cell-based; settings: mouse
Experimental: as §3

[3] = test system: TNF-α, IL-6, IL-1β, and MCP-1; assay: ELISA of pro-inflammatory markers overall (TNF-α, IL-6, IL-1β, MCP-1) in LPS-stimulated THP-1 cells; assay type: cell-based; settings: Homo sapiens, read-out: Overall IC50 values for the evaluated pro-inflammatory markers
Experimental: The logarithmic growth phase of THP-1 cells was achieved by seeding in 96-well plates at a density of 5 × 10^4 cells/well and differentiated for 24 h in the presence of PMA (0.5 μM solution in medium). After 24 h of incubation, the culture medium was removed from the 96-well plate and the cells were washed with PBS. Fresh RPMI-1640 medium supplemented with 0.1% FBS and 1% Penicillin–Streptomycin was added to each well and incubated at 37 °C overnight. The cells were pretreated with 17 limonoids at the corresponding concentration for 1 h, followed by the addition of LPS (10 ng/mL) and then incubation at 37 °C for 18 h. Finally, 50 μL of each culture supernatant solution was taken to determine the concentrations of IL-6, MCP-1, and IL-1β using the corresponding commercially available human ELISA kits following the manufacturer’s instructions. The analyte concentration in the supernatant was measured in pg/mL, and the inhibition level was expressed as a fold change compared to the LPS (−) control group. To determine the IC50 value, the dose-response data were normalized to the LPS-stimulated-only group, and the percentage of inhibition was calculated using the following formula: % Inhibition=(Absorbance of LPS+ control−Absorbance of compound treatment with LPS)/(Absorbance of LPS+ control−Absorbance of LPS− control)×100
as §2

[4] = Viability Cell (%) HEK-Blue hTLR4 LPS-Induced (10 ng/mL)
[5] = Viability Cell (%) HEK-Blue hTLR4 Without LPS
[6] = LPS 10 ng/mL, read-out: Viability Cell (%) THP-1 LPS-Induced (10 ng/mL)
[7] = without LPS, read-out: Viability Cell (%) THP-1 Without LPS

| SMILES | IC50 (TNF-α; LPS-stimulated (10 ng/mL) THP-1 cells, 1, 5, 10, 20 µM, 18 h) | IC50 (IL-6) | IC50 (MCP-1) | CC50 at 18 h [1] | IC50 (TNF-α) | TNF-α SI (selectivity index, CC50/IC50) (TNF-α; THP-1 CC50 / TNF-α IC50) | viability at 18 h, 20 µM [2, 4] | viability at 18 h, 20 µM [2, 5] | viability at 18 h, 10 µM [1, 6] | viability at 18 h, 10 µM [1, 7] | Effect on p-p38 MAPK levels (phosphorylated-p38 MAPK) | viability at 5 µM (in vitro) | viability at 10 µM (in vitro) | viability at 20 µM (in vitro) | IC50 [3] | viability at 18 h, 20 µM ([2]; 20 µM, 18 h, LPS 10 ng/mL, read-out: Viability Cell (%) HEK-Blue hTLR4 LPS-Induced (10 ng/mL)) | viability at 18 h, 20 µM ([2]; 20 µM, 18 h, without LPS, read-out: Viability Cell (%) HEK-Blue hTLR4 Without LPS) | viability at 5 µM (in vitro; 5 µM, read-out: Viability cell (%) RAW 264.7 5 µM) | viability at 10 µM (in vitro; 10 µM, read-out: Viability cell (%) RAW 264.7 10 µM) | viability at 20 µM (in vitro; 20 µM, read-out: Viability cell (%) RAW 264.7 20 µM) |
| --- | --- | --- | --- | --- | --- | --- | --- | --- | --- | --- | --- | --- | --- | --- | --- | --- | --- | --- | --- | --- |
| C[C@@H]1C[C@H]2[C@@H]3CCC4=CC(=O)C=C[C@]4(C)[C@@]3(F)[C@@H](O)C[C@]2(C)[C@@]1(O)C(=O)CO [Dex, dexamethasone, reference compound] | 2.17 µM | 0.72 µM | 0.5 µM | 28.2 µM |  |  |  |  |  |  |  |  |  |  |  |  |  |  |  |  |
| C[C@]12C3=CC[C@@H](c4ccoc4)[C@]3(C)CC[C@@H]1[C@@]1(C)C(=O)C=C[C@@]3(C)CO[C@@H]([C@H]2O)[C@H]13 [Compound 12, ceramicine B] |  |  |  | 36.9 µM | 13.9 µM | 2.66 | > 99.9% | > 99.9% | 96.7 ± 4.3% | > 99.9% | significantly suppressed | > 99.9% | > 99.9% | 89.4 ± 6.9% |  |  |  |  |  |  |
| C[C@]12C3=CC[C@@H](C4=CC(O)OC4=O)[C@]3(C)CC[C@@H]1[C@@]1(C)C(=O)C=C[C@@]3(C)CO[C@@H]([C@H]2O)[C@H]13 (stereo partly shown) [Compound 14, pentandricine] |  |  |  |  |  |  | > 99.9% | > 99.9% | 91.1 ± 9.03% | > 99.9% |  | > 99.9% | 88.2 ± 3.86% | 91.3 ± 4.19% | < 20 µM |  |  |  |  |  |
| CC(=O)O[C@H]1[C@@H](OC(C)=O)[C@@]2(C)C3=CC[C@@H](C4=CCOC4=O)[C@]3(C)CC[C@@H]2[C@@]2(C)C=CC(=O)C(C)(C)[C@H]12 [Compound 6, lasiocarpine A] |  |  |  |  |  |  |  |  | > 99.9% | 90.7 ± 3.82% |  |  |  |  |  | 58.3 ± 1.89% | 77.1 ± 2.13% | 103 ± 6.05% | > 99.9% | 96.7 ± 2.14% |
| CC(=O)O[C@@H]1C[C@H]2C(C)(C)C(=O)C=C[C@]2(C)[C@H]2CC[C@]3(C)C(C(=O)C[C@H]3c3ccoc3)[C@@]21C (stereo partly drawn) [Compound 2, 7α-acetylneotrichilenone] |  |  |  |  |  |  | 75.5 ± 13.8% | 61.2 ± 1.22% | > 99.9% | > 99.9% |  | 96.2 ± 3.67% | > 99.9% | > 99.9% |  |  |  |  |  |  |
